Patent US8507523B2, “Therapeutic tetrahydroisoquinoline-based compositions for cancer therapy” (priority 2006, dated 2013)
Where two headings read alike, the source gives them in different places.

Legend:
[1] = Acute toxicity observation in treated glioma-bearing rats; type: in vivo, Sprague-Dawley rats; settings: 40 mg/kg
Experimental: The tumor was allowed to grow for three days prior to treatment. EDL-291 (40 mg/kg) was delivered by IP delivery twice a day for the next seven days. Animals were placed into one of two treatment groups: 9 rats received carrier solution only (Hanks Balanced Salt Solution, HBSS plus 10% DMSO) and 9 rats received EDL-291. During the treatment period the animal were monitored daily. After a treating the animals for 7 days, the rats were deeply anesthetized with 26 mg/kg Rompium and 174 mg/kg Ketalar and perfused through the heart with saline followed by 4% paraformaldehyde in phosphate buffer (pH 7.4). Brains were removed from the skull, post-fixed for 24 hours and then placed in a 30% sucrose solution. The brains were sectioned at […] with a freezing microtome. One 1-in-5 series of sections was mounted on glass slides and stained by the Nissl method.
Approximately three days after tumor cell implantation, animals began receiving intraperitoneal administration of EDL-291 (40 mg/kg) twice daily for the next seven days. Animals were placed into one of two treatment groups: 9 rats received vehicle only (10% DMSO in Hanks Balanced Salt Solution, HBSS) and 9 rats received EDL-291. Animals were monitored daily during the treatment period. […]

C6 glioma [2] = test: Dose response (percent survival) in C6 glioma cell cultures; type: cell-based, rat
Text: (§1) 6,7-Dimethoxy-1-[4-(4-methoxypyridin-3-yl)benzyl]-1,2,3,4-tetrahydroisoquinolinehydrochloride (EDL-291) was synthesized as described herein in the laboratory of Dr. Duane D. Miller at The University of Tennessee Health Science Center. Briefly, the primary cultures of astrocytes and cultures of C6 glioma cell lines were handled identically with respect to treatment concentrations and manipulations of cells for the screening assays. The cells were trypsinized and transferred to 96-well plates at a cell density of 10^3 cells/mm^2 in the wells. The cells were grown overnight in 100 μL of 10% FCS BME in a 37° C. incubator containing a humid, 5% CO2 atmosphere.
(§2) EDL291 was dissolved completely to make a […] stock solution and diluted to produce a series of concentrations. A 20 μL aliquot of these initial solutions was added to 180 μl of 2% FCS BME to produce the test concentration. The vehicle solution was tested as a control. […] Immediately before treatment, the 10% FCS BME was removed from the cells and replaced with the 180 μl of the treatment medium. The cultured cells (normal primary cultures of rat brain astrocytes or C6 glioma purchased from ATCC) were incubated with test compound for 4 days. The cells were fixed with 4% paraformaldehyde, stained with 0.1% Cresylecth violet stain, and quantitated. The screening data was collected as four wells for each dose per compound (screening) or concentration (dose response curve). Also, the average growth of 8 wells with no treatment was used as a negative control for each plate (100% growth). The cells for dose response curves were grown in the same media and were handled in a similar manner as in the screening assays.
(§3) The cytotoxic character of each compound was reported as the percent survival, calculated as the average A560 for treated cells divided by A560 of untreated (100% control) cells, and expressed as a percentage. Values less than 100% indicate a cytostatic or cytotoxic effect. Dose response curves and EC50 values were attained via plots of percent survival vs. concentration.

[3] = tested on: normal primary cultures of rat brain astrocytes; test: Dose response (percent survival) in primary cultures of astrocytes; type: cell-based; settings: 4 days of treatment
Text: as §1, §2, §3

C6 glioma [4] = test: C6 glioma transplanted into rat brain, tumor size determination; type: in vivo, Sprague-Dawley rats
Experimental: For studies in which C6 glioma are transplanted into the brain, a C6 cell line produced in the inventors' laboratory that caries the β-galactosidase marker was used. The cell line was transfected with the pCMVβ expression vector (Clontech, Palo Alto, Calif.) and stable transfectants were selected using G418 (GibcoBRL). The glioma cells were plated at a density of 5×10^3 cells/cm^2 into T-75 culture flasks. The cells were allowed to grow to confluence in BME with 10% fetal calf serum. On the day before transplantation, the cultures were rinsed with Hank's Balanced Salt Solution placed in BME with 10% rat serum (Equitech-Bio Inc., Kerrville, Tex.).
A total of 18 male Sprague-Dawley rats (250-350 g) were deeply anesthetized with (13 mg/kg, Rompom and 87 mg/kg, Ketalar) for the surgery. The rats were monitored during the surgery to insure that they remained deeply anesthetized and unresponsive to pain. […]
The tumor was allowed to grow for three days prior to treatment. […] During the treatment period the animal were monitored daily. […]
The size of tumors in each animal was measured. […] The digital images were analyzed to define the volume of the tumor using the program NIH image. […] The codes were released and the data compiled and analyzed using a Student t test. […]

COc1cc2c(cc1OC)C(Cc1ccc(-c3cnccc3OC)cc1)NCC2.Cl (stereo not shown) [EDL-291, 6,7-Dimethoxy-1-[4-(4-methoxypyridin-3-yl)benzyl]-1,2,3,4-tetrahydroisoquinolinehydrochloride]
acute toxicity [1]: no evidence of acute toxicity | fold difference in effect concentration, C6 glioma relative to normal brain astrocytes (C6 glioma [2]; EC50 astrocytes vs EC50 C6 glioma): 36 fold | EC50 (C6 glioma [2]; Rattus norvegicus, C6 glioma, 96 h, C6 glioma cells, 4 days of treatment, percent survival): 0.6 µM | EC50 ([3]; read-out: EC50 μM Astrocyte): 26 µM | EC50 ([3]; Rattus norvegicus, Astrocyte, 96 h): 22.8 µM | tumors smaller on average than in control rats (C6 glioma [4]; 40 mg/Kg BID IP for 7 days, n=9, p=0.02 (student t test)): 32% | tumor size compared to vehicle control animals (in words) (C6 glioma [4]; 40 mg/kg IP twice daily for 7 days): statistically significant reduction in tumor size
